Data reported in patent US20150307938A1, “METHOD TO IDENTIFY A NOVEL CLASS OF IMMUNOLOGIC ADJUVANTS” (Lancell, L.L.C., priority 2011, published 2015).

System: skin
Assay: Affymetrix microarray of skin, DBP-4 hr and analogs vs. untreated; gene selection by log-2 fold change, Wilcoxon, Kendall tau (Tables 8, 9)
Assay type: in vivo, mouse
Conditions: for Kendall: Kendall tau, expression vs. outcome

With `CCCCOC(=O)c1ccccc1C(=O)OCCCC` [DBP, dibutylphthalate] the Wilcoxon (gene #557 Il10ra NM_008348_at, DBP-4 hr vs. untreated) was “No”, the Kendall (gene #557 Il10ra NM_008348_at) was “Yes” and the Wilcoxon (gene #558 Il7 NM_008371_at, DBP-4 hr vs. untreated) was “No”. The Kendall (gene #558 Il7 NM_008371_at) was “Yes”, the Wilcoxon (gene #559 Kif3a NM_008443_at, DBP-4 hr vs. untreated) was “No” and the Kendall (gene #559 Kif3a NM_008443_at) was “Yes”. The Wilcoxon (gene #560 Lmo2 NM_008505_at, DBP-4 hr vs. untreated) was “No”, the Kendall (gene #560 Lmo2 NM_008505_at) was “Yes” and the Wilcoxon (gene #561 Mcl1 NM_008562_at, DBP-4 hr vs. untreated) was “No”. For the same molecule, the Kendall (gene #561 Mcl1 NM_008562_at) was “Yes”, the Wilcoxon (gene #562 Meox2 NM_008584_at, DBP-4 hr vs. untreated) was “No” and the Kendall (gene #562 Meox2 NM_008584_at) was “Yes”. For the same molecule, the Wilcoxon (gene #563 Mtf1 NM_008636_at, DBP-4 hr vs. untreated) was “No”, the Kendall (gene #563 Mtf1 NM_008636_at) was “Yes” and the Wilcoxon (gene #564 Mut NM_008650_at, DBP-4 hr vs. untreated) was “No”. The Kendall (gene #564 Mut NM_008650_at) was “Yes”, the Wilcoxon (gene #565 Ppp1r15a NM_008654_at, DBP-4 hr vs. untreated) was “No” and the Kendall (gene #565 Ppp1r15a NM_008654_at) was “Yes”. The Wilcoxon (gene #566 Ncf4 NM_008677_at, DBP-4 hr vs. untreated) was “No”, the Kendall (gene #566 Ncf4 NM_008677_at) was “Yes” and the Wilcoxon (gene #567 Nos3 NM_008713_at, DBP-4 hr vs. untreated) was “No”. For the same molecule, the Kendall (gene #567 Nos3 NM_008713_at) was “Yes”, the Wilcoxon (gene #568 Pigf NM_008838_at, DBP-4 hr vs. untreated) was “No” and the Kendall (gene #568 Pigf NM_008838_at) was “Yes”. The Wilcoxon (gene #569 Map2k3 NM_008928_at, DBP-4 hr vs. untreated) was “No”, the Kendall (gene #569 Map2k3 NM_008928_at) was “Yes” and the Wilcoxon (gene #570 Rad50 NM_009012_at, DBP-4 hr vs. untreated) was “No”. For the same molecule, the Kendall (gene #570 Rad50 NM_009012_at) was “Yes”, the Wilcoxon (gene #571 Ralgds NM_009058_at, DBP-4 hr vs. untreated) was “No” and the Kendall (gene #571 Ralgds NM_009058_at) was “Yes”. For the same molecule, the Wilcoxon (gene #572 Hltf NM_009210_at, DBP-4 hr vs. untreated) was “No”, the Kendall (gene #572 Hltf NM_009210_at) was “Yes” and the Wilcoxon (gene #573 Serpina3n NM_009252_at, DBP-4 hr vs. untreated) was “No”. The Kendall (gene #573 Serpina3n NM_009252_at) was “Yes”, the Wilcoxon (gene #574 Tnfaip1 NM_009395_at, DBP-4 hr vs. untreated) was “No” and the Kendall (gene #574 Tnfaip1 NM_009395_at) was “Yes”. For the same molecule, the Wilcoxon (gene #575 Tuba4a NM_009447_at, DBP-4 hr vs. untreated) was “No”, the Kendall (gene #575 Tuba4a NM_009447_at) was “Yes” and the Wilcoxon (gene #576 Zfp101 NM_009542_at, DBP-4 hr vs. untreated) was “No”. The Kendall (gene #576 Zfp101 NM_009542_at) was “Yes”, the Wilcoxon (gene #577 Parp2 NM_009632_at, DBP-4 hr vs. untreated) was “No” and the Kendall (gene #577 Parp2 NM_009632_at) was “Yes”. The Wilcoxon (gene #578 Aldh2 NM_009656_at, DBP-4 hr vs. untreated) was “No”, the Kendall (gene #578 Aldh2 NM_009656_at) was “Yes” and the Wilcoxon (gene #579 Cebpb NM_009883_at, DBP-4 hr vs. untreated) was “No”. The Kendall (gene #579 Cebpb NM_009883_at) was “Yes”, the Wilcoxon (gene #580 Bcar1 NM_009954_at, DBP-4 hr vs. untreated) was “No” and the Kendall (gene #580 Bcar1 NM_009954_at) was “Yes”. For the same molecule, the Wilcoxon (gene #581 Eci1 NM_010023_at, DBP-4 hr vs. untreated) was “No”, the Kendall (gene #581 Eci1 NM_010023_at) was “Yes” and the Wilcoxon (gene #582 Ddt NM_010027_at, DBP-4 hr vs. untreated) was “No”. The Kendall (gene #582 Ddt NM_010027_at) was “Yes”, the Wilcoxon (gene #583 Egr2 NM_010118_at, DBP-4 hr vs. untreated) was “No” and the Kendall (gene #583 Egr2 NM_010118_at) was “Yes”. The Wilcoxon (gene #584 F2r NM_010169_at, DBP-4 hr vs. untreated) was “No”, the Kendall (gene #584 F2r NM_010169_at) was “Yes” and the “Wilcoxon: Abhd6” value (gene Abhd6, NM_025341_at, DBP-4 hr vs. untreated) was “No”. For the same molecule, the “Kendall: Abhd6” value (gene Abhd6, NM_025341_at, gene expression vs. output) was “Yes”, the “Wilcoxon: Acad8” value (gene Acad8, NM_025862_at, DBP-4 hr vs. untreated) was “No” and the “Kendall: Acad8” value (gene Acad8, NM_025862_at, gene expression vs. output) was “Yes”. The “Wilcoxon: Ak2” value (gene Ak2, NM_016895_at, DBP-4 hr vs. untreated) was “No”, the “Kendall: Ak2” value (gene Ak2, NM_016895_at, gene expression vs. output) was “Yes” and the “Wilcoxon: Akr1e1” value (gene Akr1e1, NM_018859_at, DBP-4 hr vs. untreated) was “No”. The “Kendall: Akr1e1” value (gene Akr1e1, NM_018859_at, gene expression vs. output) was “Yes”, the “Wilcoxon: Avpr1a” value (gene Avpr1a, NM_016847_at, DBP-4 hr vs. untreated) was “No” and the “Kendall: Avpr1a” value (gene Avpr1a, NM_016847_at, gene expression vs. output) was “Yes”. For the same molecule, the “Wilcoxon: B4galt1” value (gene B4galt1, NM_022305_at, DBP-4 hr vs. untreated) was “No”, the “Kendall: B4galt1” value (gene B4galt1, NM_022305_at, gene expression vs. output) was “Yes” and the “Wilcoxon: Bphl” value (gene Bphl, NM_026512_at, DBP-4 hr vs. untreated) was “No”. The “Kendall: Bphl” value (gene Bphl, NM_026512_at, gene expression vs. output) was “Yes”, the “Wilcoxon: Cdkl2” value (gene Cdkl2, NM_016912_at, DBP-4 hr vs. untreated) was “No” and the “Kendall: Cdkl2” value (gene Cdkl2, NM_016912_at, gene expression vs. output) was “Yes”. For the same molecule, the “Wilcoxon: Cep70” value (gene Cep70, NM_023873_at, DBP-4 hr vs. untreated) was “No”, the “Kendall: Cep70” value (gene Cep70, NM_023873_at, gene expression vs. output) was “Yes” and the “Wilcoxon: Cirh1a” value (gene Cirh1a, NM_011574_at, DBP-4 hr vs. untreated) was “No”. For the same molecule, the “Kendall: Cirh1a” value (gene Cirh1a, NM_011574_at, gene expression vs. output) was “Yes”, the “Wilcoxon: Clec14a” value (gene Clec14a, NM_025809_at, DBP-4 hr vs. untreated) was “No” and the “Kendall: Clec14a” value (gene Clec14a, NM_025809_at, gene expression vs. output) was “Yes”. For the same molecule, the “Wilcoxon: Commd4” value (gene Commd4, NM_025417_at, DBP-4 hr vs. untreated) was “No”, the “Kendall: Commd4” value (gene Commd4, NM_025417_at, gene expression vs. output) was “Yes” and the “Wilcoxon: Cr1l” value (gene Cr1l, NM_013499_at, DBP-4 hr vs. untreated) was “No”. The “Kendall: Cr1l” value (gene Cr1l, NM_013499_at, gene expression vs. output) was “Yes”, the “Wilcoxon: Cyth1” value (gene Cyth1, NM_011180_at, DBP-4 hr vs. untreated) was “No” and the “Kendall: Cyth1” value (gene Cyth1, NM_011180_at, gene expression vs. output) was “Yes”. For the same molecule, the “Wilcoxon: D16Ertd472e” value (gene D16Ertd472e, NM_025967_at, DBP-4 hr vs. untreated) was “No”, the “Kendall: D16Ertd472e” value (gene D16Ertd472e, NM_025967_at, gene expression vs. output) was “Yes” and the “Wilcoxon: Dcxr” value (gene Dcxr, NM_026428_at, DBP-4 hr vs. untreated) was “No”. For the same molecule, the “Kendall: Dcxr” value (gene Dcxr, NM_026428_at, gene expression vs. output) was “Yes” and the “Wilcoxon: Dda1” value (gene Dda1, NM_025600_at, DBP-4 hr vs. untreated) was “No”.
